According to US10308636B2, “Aromatic heterocyclic compound” (MITSUBISHI TANABE PHARMA CORPORATION, priority 2012, dated 2019):

Key:
Male ICR mice = assay: Triglyceride (TG) elevation-suppressing action in plasma by lipid administration; format: in vivo, mouse; details: 5 mg/kg oral, fasted ICR mice, lipid (Intralipos 20%, 10 mL/kg) 30 minutes after compound, plasma TG 2 hours after lipid, relative to solvent control
Description: Male ICR mice, 6 to 9 weeks old, were fasted overnight, and a test compound was suspended in 0.2% carboxymethylcellulose solution and the suspension was orally administered. After 30 minutes, lipid (Intralipos, 20%, Otsuka Pharmaceutical, 10 mL/kg) was orally administered. Blood was sampled through the caudal vein immediately before and 2 hours after the administration of the lipid to obtain plasma. TG in the plasma was determined by using Triglyceride E-Test Wako (Wako Pure Chemical), and the elevation value of TG in the plasma by the lipid administration was calculated. By using the plasma TG elevation value in the solvent control group as the control, the plasma TG elevation-suppressing ratio was calculated in the test compound administrating group.

Male C57BL/6J mice = assay: Food intake-suppressing action (high fat diet); format: in vivo, mouse; details: 5 mg/kg oral, fasted C57BL/6J mice, food intake for 4 hours, relative to solvent control
Description: Male C57BL/6J mice, 7 to 10 weeks old, were fasted overnight, and a test compound was suspended in 0.2% carboxymethylcellulose solution and the suspension was orally administered. Immediately, the animals were given high fat diet (Oriental Yeast, 60 cal % fat) and allowed to take freely. The food intake for 4 hours was determined, and the decrease ratio of the food intake (food intake-suppressing ratio) was calculated in the test compound administrating group, relative to the food intake in the solvent control group as a control.

Male KK-Ay mice = assay: Body weight gain-suppressing, hypoglycemic and plasma insulin-decreasing action in KK-Ay mouse; format: in vivo; details: 30 mg/kg/day oral once a day for 2 weeks, KK-Ay mice on high fat diet; for Hypoglycemic action (30 mg/kg/day): blood sugar after overnight fast; for Hypoglycemic action (30 mg/kg/day) / Plasma insulin-decreasing action (30 mg/kg/day): relative to solvent control; for Plasma insulin-decreasing action (30 mg/kg/day): plasma insulin after overnight fast; for Body weight gain-suppressing action (30 mg/kg/day): relative to body weight gain of solvent control as 100%
Description: Male KK-Ay mice, 8 weeks old, were given high fat diet (Oriental Yeast, 60 cal % fat), the test compound was suspended in 0.2% carboxymethylcellulose solution and the suspension was orally administered once a day. After the oral administration was repeated for 2 weeks, the body weight gain-suppressing ratio of the test compound was calculated, relative to the body weight gain of the solvent control group during the test period as 100%. After the final administration, the animals were fasted overnight, and blood was sampled through the caudal vein. The blood sugar and the insulin in the plasma were determined by using Glucose C II-Test Wako (Wako Pure Chemical) and Mouse Insulin Measurement Kit (Morinaga Institute of Biological Science), respectively.

Row | SMILES | Plasma TG elevation suppressing ratio (5 mg/kg) (Male ICR mice) [%] | Food intake-suppressing ratio (5 mg/kg) (Male C57BL/6J mice) [%] | Hypoglycemic action (30 mg/kg/day) (Male KK-Ay mice) [%] | Plasma insulin-decreasing action (30 mg/kg/day) (Male KK-Ay mice) [%] | Body weight gain-suppressing action (30 mg/kg/day) (Male KK-Ay mice) [%]
1 | CC(C)(COc1ccc(-c2ccc(-c3ncc(CCOc4ccccc4)[nH]3)cn2)cc1)C(=O)O [Example 1-58] | 66 | 68 | – | – | –
2 | COC(=O)C(C)(C)COc1ccc(-c2ccc(-c3nc(-c4noc(C)n4)cn3COCC[Si](C)(C)C)cn2)cc1 [Example 7] | – | – | 42 | 34 | 34
3 | CC(C)(COc1ccc(-c2ccc(-c3nc(COCc4ccccc4)c[nH]3)cn2)cc1)C(=O)O [Example 10] | – | – | 37 | 40 | 32
4 | CCOCc1nc(-c2ccc(-c3ccc(OCC(C)(C)C(=O)O)cc3)nc2)[nH]c1Cl [Example 31-2] | 74 | 74 | 55 | 45 | 41
5 | Cc1cc(OCC(C)(C)C(=O)O)ncc1-c1ccc(-c2nc(C#N)c[nH]2)cc1 [Example 32-2] | 63 | 65 | – | – | –
6 | O=C(O)Cc1ccc(C2CCN(c3ccc(-c4nc(C(F)(F)F)c[nH]4)cn3)CC2)cc1 [Example 43-2] | 66 | 82 | – | – | –
7 | Nc1nnc(-c2ccc(Br)cc2)o1 [Example 61] | – | – | 44 | 50 | 36
8 | CCOc1nc(-c2ccc(-c3ccc(O[C@H]4CC[C@@H](C(=O)OCC)CC4)nc3)cc2)nn1COCC[Si](C)(C)C [Example 67] | – | – | 47 | 14 | 43
9 | COC(=O)C(C)(C)COc1ccc(-c2ccc(-c3nc(OCC(F)(F)C(F)(F)F)n(COCC[Si](C)(C)C)n3)cc2)cn1 [Example 74] | – | – | 32 | 29 | 41
10 | NC(=O)c1ccc(Br)cc1F [Example 78] | – | – | 57 | 69 | 56
11 | COc1ccc(-c2n[nH]c(-c3ccc(-c4ccc(OCC(C)(C)C(=O)O)nc4)cc3)n2)cc1 [Example 110] | 73.0 | 68 | – | – | –
